Reference: the supplement of paper PMC10307832

Compound: CC1(COc2ccc3c(c2)ncn3-c2ccc3cccc(N4CCC(N)CC4)c3n2)COC1 [Crenolanib] + COc1cc2c(Oc3ccc(NC(=O)C4(C(=O)Nc5ccc(F)cc5)CC4)cc3F)ccnc2cc1OCCCN1CCOCC1 [Foretinib] (partner 0.25 µM)
Experiment: relative viability (nuclei count vs DMSO), 5 days (fraction); higher = more cells survive
Details: first compound 1 µM
Method in brief: (§1)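 Lung cancer cell lines were seeded in 1536-well plates and dosed by pin tool the next day, with either a single drug or a fixed anchor-drug dose combined with five library-drug doses (not always all listed) spaced in √10 steps. Five days later, one step fixed the cells and stained their nuclei (final 0.05% Triton X-100, 1% formaldehyde, 1 ug/ml Hoechst), and nuclei were counted on 4× images. Relative viability is the nuclei count in treated wells divided by the count in vehicle wells, and each value is the median of duplicate plates.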

Row | Cell Line | relative viability
1 | NCI-H1395 | 0.936
2 | 201T | 1.06
3 | NCI-H1975 | 1.04
4 | HOP-62 | 1.15
5 | NCI-H2347 | 0.901
6 | NCI-H1355 | 0.906
7 | NCI-H650 | 1
8 | CAL-12T | 1.22
9 | NCI-H1666 | 0.974
10 | H3255 | 1.06
11 | NCI-H23 | 1.06
12 | NCI-H1915 | 0.992
13 | NCI-H1437 | 1.14
14 | NCI-H322M | 0.98
15 | NCI-H2085 | 1.12
16 | HCC-366 | 0.938
17 | NCI-H1793 | 0.689

Compound: CC1(COc2ccc3c(c2)ncn3-c2ccc3cccc(N4CCC(N)CC4)c3n2)COC1 [Crenolanib] + Cc1cc(Nc2cc(N3CCN(C)CC3)nc(Sc3ccc(NC(=O)C4CC4)cc3)n2)n[nH]1 [Tozasertib] (partner 0.1 µM)
Experiment: as above
Details: first compound 0.01 µM
Method in brief: as §1

Row | Cell Line | relative viability
18 | HCC-78 | 0.366
19 | LXF-289 | 0.183
20 | BEN | 0.524
21 | HCC-15 | 0.397
22 | HCC-827 | 0.422
23 | NCI-H441 | 0.68
24 | LOU-NH91 | 0.767
25 | A-427 | 0.209
26 | NCI-H460 | 0.621
27 | NCI-H727 | 0.635
28 | NCI-H1755 | 0.666
29 | NCI-H2405 | 0.859
30 | NCI-H1395 | 0.742
31 | 201T | 1.04
32 | NCI-H1975 | 0.754
33 | HOP-62 | 0.357
34 | NCI-H2347 | 0.646
35 | NCI-H1355 | 0.586
36 | NCI-H650 | 0.826
37 | CAL-12T | 0.314
38 | NCI-H1666 | 0.695
39 | H3255 | 0.672
40 | NCI-H23 | 0.358
41 | NCI-H1915 | 0.453
42 | NCI-H1437 | 0.458
43 | NCI-H322M | 0.51
44 | NCI-H2085 | 0.895
45 | HCC-366 | 0.167
46 | NCI-H1793 | 0.368

Same assay, conditions: first compound 0.03162 µM

Row | Cell Line | relative viability
47 | HCC-78 | 0.395
48 | LXF-289 | 0.222
49 | BEN | 0.476
50 | HCC-15 | 0.313
51 | HCC-827 | 0.417
52 | NCI-H441 | 0.82
53 | LOU-NH91 | 0.655
54 | A-427 | 0.237
55 | NCI-H460 | 0.44
56 | NCI-H727 | 0.579
57 | NCI-H1755 | 0.594
58 | NCI-H2405 | 0.737
59 | NCI-H1395 | 0.759
60 | 201T | 1.02
61 | NCI-H1975 | 0.759
62 | HOP-62 | 0.332
63 | NCI-H1355 | 0.596
64 | NCI-H650 | 0.79
65 | CAL-12T | 0.349
66 | NCI-H1666 | 0.613
67 | H3255 | 0.609
68 | NCI-H23 | 0.394
69 | NCI-H1915 | 0.415
70 | NCI-H1437 | 0.443
71 | NCI-H322M | 0.503
72 | NCI-H2085 | 0.841
73 | HCC-366 | 0.148
74 | NCI-H1793 | 0.362

Same assay, conditions: first compound 0.1 µM

Row | Cell Line | relative viability
75 | LXF-289 | 0.201
76 | BEN | 0.474
77 | HCC-15 | 0.444
78 | HCC-827 | 0.421
79 | NCI-H441 | 0.643
80 | LOU-NH91 | 0.653
81 | A-427 | 0.224
82 | NCI-H460 | 0.421
83 | NCI-H727 | 0.721
84 | NCI-H1755 | 0.527
85 | NCI-H1395 | 0.81
86 | 201T | 0.856
87 | NCI-H1975 | 0.698
88 | HOP-62 | 0.43
89 | NCI-H1355 | 0.508
90 | NCI-H650 | 0.707
91 | CAL-12T | 0.294
92 | NCI-H1666 | 0.633
93 | H3255 | 0.579
94 | NCI-H23 | 0.385
95 | NCI-H1915 | 0.436
96 | NCI-H1437 | 0.415
97 | NCI-H322M | 0.461
98 | NCI-H2085 | 0.726
99 | HCC-366 | 0.154
100 | NCI-H1793 | 0.396

Same assay, conditions: first compound 0.3162 µM

Row | Cell Line | relative viability
101 | HCC-78 | 0.406
102 | LXF-289 | 0.181
103 | BEN | 0.484
104 | HCC-15 | 0.378
105 | HCC-827 | 0.389
106 | NCI-H441 | 0.717
107 | LOU-NH91 | 0.431
108 | A-427 | 0.181
109 | NCI-H460 | 0.056
110 | NCI-H727 | 0.65
111 | NCI-H1755 | 0.501
112 | NCI-H2405 | 0.502
113 | NCI-H1395 | 0.691
114 | 201T | 0.733
115 | NCI-H1975 | 0.881
116 | HOP-62 | 0.342
117 | NCI-H2347 | 0.454
118 | NCI-H1355 | 0.354
119 | NCI-H650 | 0.327
120 | CAL-12T | 0.343
121 | NCI-H1666 | 0.591
122 | H3255 | 0.671
123 | NCI-H23 | 0.313
124 | NCI-H1915 | 0.424
125 | NCI-H1437 | 0.437
126 | NCI-H322M | 0.424
127 | NCI-H2085 | 0.754
128 | HCC-366 | 0.144
129 | NCI-H1793 | 0.226

Same assay, conditions: first compound 1 µM

Row | Cell Line | relative viability
130 | HCC-78 | 0.368
131 | LXF-289 | 0.176
132 | BEN | 0.464
133 | HCC-15 | 0.427
134 | HCC-827 | 0.431
135 | NCI-H441 | 0.663
136 | LOU-NH91 | 0.616
137 | A-427 | 0.225
138 | NCI-H460 | 0.397
139 | NCI-H727 | 0.501
140 | NCI-H1755 | 0.549
141 | NCI-H2405 | 0.691
142 | NCI-H1395 | 0.659
143 | 201T | 0.945
144 | NCI-H1975 | 0.632
145 | HOP-62 | 0.341
146 | NCI-H2347 | 0.48
147 | NCI-H1355 | 0.534
148 | NCI-H650 | 0.614
149 | CAL-12T | 0.36
150 | NCI-H1666 | 0.555
151 | H3255 | 0.611
152 | NCI-H23 | 0.27
153 | NCI-H1915 | 0.391
154 | NCI-H1437 | 0.39
155 | NCI-H322M | 0.465
156 | NCI-H2085 | 0.816
157 | HCC-366 | 0.108
158 | NCI-H1793 | 0.422

Compound: O=C1NC(=O)[C@@H](c2cn3c4c(cccc24)CCC3)[C@@H]1c1c[nH]c2ccccc12 [Tivantinib] + Cc1nc(NC(=O)N2CCC[C@H]2C(N)=O)sc1-c1ccnc(C(C)(C)C(F)(F)F)c1 [Alpelisib] (partner 2 µM)
Experiment: as above
Details: first compound 0.01 µM
Method in brief: as §1

Row | Cell Line | relative viability
159 | HCC-78 | 0.412
160 | LXF-289 | 1.06
161 | BEN | 1.02
162 | HCC-15 | 0.942
163 | HCC-827 | 1.04
164 | NCI-H441 | 0.736
165 | LOU-NH91 | 0.663
166 | A-427 | 1.12
167 | NCI-H460 | 0.508
168 | NCI-H727 | 0.537
169 | NCI-H1755 | 0.918
170 | NCI-H2405 | 1.12
171 | NCI-H1395 | 1.18
172 | 201T | 0.982
173 | NCI-H1975 | 0.645
174 | HOP-62 | 1.04
175 | NCI-H2347 | 1.16
176 | NCI-H1355 | 0.852
177 | NCI-H650 | 1.24
178 | CAL-12T | 1.19
179 | NCI-H1666 | 0.902
180 | H3255 | 0.659
181 | NCI-H23 | 0.778
182 | NCI-H1915 | 1.07
183 | NCI-H1437 | 0.969
184 | NCI-H322M | 0.699
185 | NCI-H2085 | 1.03
186 | HCC-366 | 0.432
187 | NCI-H1793 | 0.678

Same assay, conditions: first compound 0.03162 µM

Row | Cell Line | relative viability
188 | HCC-78 | 0.306
189 | LXF-289 | 1.01
190 | BEN | 0.837
191 | HCC-15 | 0.832
192 | HCC-827 | 1.03
193 | NCI-H441 | 0.648
194 | LOU-NH91 | 0.695
195 | A-427 | 1.12
196 | NCI-H460 | 0.373
197 | NCI-H727 | 0.526
198 | NCI-H1755 | 0.936
199 | NCI-H2405 | 0.751
200 | NCI-H1395 | 1.23
201 | 201T | 1
202 | NCI-H1975 | 0.676
203 | NCI-H2347 | 0.959
204 | NCI-H1355 | 0.839
205 | CAL-12T | 1.32
206 | NCI-H1666 | 0.904
207 | H3255 | 0.679
208 | NCI-H23 | 0.623
209 | NCI-H1915 | 1.01
210 | NCI-H1437 | 0.934
211 | NCI-H322M | 0.891
212 | NCI-H2085 | 0.934
213 | HCC-366 | 0.35
214 | NCI-H1793 | 0.858

Same assay, conditions: first compound 0.1 µM

Row | Cell Line | relative viability
215 | HCC-78 | 0.34
216 | LXF-289 | 1.03
217 | BEN | 0.893
218 | HCC-15 | 0.799
219 | HCC-827 | 0.922
220 | LOU-NH91 | 0.742
221 | A-427 | 1.1
222 | NCI-H460 | 0.447
223 | NCI-H727 | 0.505
224 | NCI-H1755 | 0.886
225 | NCI-H2405 | 0.777
226 | NCI-H1395 | 1
227 | 201T | 0.999
228 | NCI-H1975 | 0.602
229 | HOP-62 | 0.648
230 | NCI-H2347 | 1.06
231 | NCI-H1355 | 0.877
232 | NCI-H650 | 0.956
233 | CAL-12T | 1.09
234 | NCI-H1666 | 0.948
235 | H3255 | 0.75
236 | NCI-H23 | 0.717
237 | NCI-H1915 | 1.09
238 | NCI-H1437 | 0.898
239 | NCI-H322M | 0.719
240 | NCI-H2085 | 1.01
241 | HCC-366 | 0.421
242 | NCI-H1793 | 0.703

Same assay, conditions: first compound 0.3162 µM

Row | Cell Line | relative viability
243 | HCC-78 | 0.204
244 | LXF-289 | 1.04
245 | BEN | 0.735
246 | HCC-15 | 0.996
247 | HCC-827 | 0.719
248 | NCI-H441 | 0.76
249 | LOU-NH91 | 0.533
250 | A-427 | 0.973
251 | NCI-H460 | 0.473
252 | NCI-H1755 | 0.902
253 | NCI-H2405 | 0.483
254 | NCI-H1395 | 0.878
255 | 201T | 0.981
256 | NCI-H1975 | 0.5
257 | HOP-62 | 0.923
258 | NCI-H2347 | 1.01
259 | NCI-H1355 | 0.751
260 | NCI-H650 | 1.02
261 | CAL-12T | 0.8
262 | NCI-H1666 | 0.608
263 | NCI-H23 | 0.557
264 | NCI-H1915 | 1.04
265 | NCI-H1437 | 0.971
266 | NCI-H322M | 0.546
267 | NCI-H2085 | 0.837
268 | HCC-366 | 0.419
